The source of these data is patent US20250281424A1 (New York Blood Center, Inc, priority 2020, published 2025).

For this experiment, the target named is T1, human PF4 (Homo sapiens, UniProt P02776).
T1 construct: PF4 is a 70 amino acid, lysine-rich 7.8 kDa platelet-specific protein; made in house; host or cells: Escherichia coli BL21DE3 pLysS (pT7-7) and/or Drosophila S2 cells
T1 sequence (P02776 32-101): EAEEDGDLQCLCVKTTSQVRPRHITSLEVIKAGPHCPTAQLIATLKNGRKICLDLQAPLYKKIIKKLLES
The experiment in a line: Inhibition of PF4 tetramer formation (BS3 cross-linking, SDS-PAGE). The format is biochemical. The settings on record: for inhibition at 5 µM: 5 μM inhibitor; for inhibition at 5 µM / inhibition at 10 µM / inhibition at 1 µM / inhibition at 3 µM: read-out: % inhibition of PF4 tetramer formation at single concentration of inhibitor; for inhibition at 10 µM: 10 μM inhibitor (column A); for IC50: read-out: IC50 of PF4 tetramer formation inhibition; for inhibition at 1 µM: 1 μM inhibitor; for inhibition at 3 µM: 3 μM inhibitor (column A). In a few lines:
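Monomer, dimer, trimer and tetramer fractions were quantified by densitometry after reducing 12% SDS-PAGE of BS3-cross-linked (0.2 mM, 30 min, room temperature) PF4. Before cross-linking, 10 μg/ml E. coli-expressed human WT PF4 in PBS was exposed to compound for 15 min at 37° C or 60 min at room temperature; controls lacked compound.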

For orientation: IC50 means the midpoint of a concentration-inhibition curve.

Take `CCCC(=O)C1C(=O)c2ccc(C(=O)c3ccc4c(c3)C(=O)C(C(=O)CCC)C4=O)cc2C1=O` (stereo not shown) [Example 150, 2-butanoyl-5-(2-butanoyl-1,3-dioxo-2,3-dihydro-1H-indene-5-carbonyl)-2,3-dihydro-1H-indene-1,3-dione]: the inhibition at 5 µM was 50%, the inhibition at 10 µM came out at 75% and the IC50 is about 22 µM.

For the compound `CC(C)[C@@H](N)C(=O)C1C(=O)c2ccc(S(=O)(=O)c3ccc4c(c3)C(=O)C(C(=O)[C@H](N)C(C)C)C4=O)cc2C1=O` (stereo partly drawn) [Example 353, 2-[(2R)-2-amino-3-methylbutanoyl]-5-({2-[(2R)-2-amino-3-methylbutanoyl]-1,3-dioxo-2,3-dihydro-1H-inden-5-yl}sulfonyl)-2,3-dihydro-1H-indene-1,3-dione], the inhibition at 1 µM was determined as 22% and the inhibition at 3 µM stood at 37%.

As to `O=C(COC1CCCCC1)C1C(=O)c2ccc(S(=O)(=O)c3ccc4c(c3)C(=O)C(C(=O)COC3CCCCC3)C4=O)cc2C1=O` (stereo not shown) [Example 232, 2-[2-(cyclohexyloxy)acetyl]-5-({2-[2-(cyclohexyloxy)acetyl]-1,3-dioxo-2,3-dihydro-1H-inden-5-yl}sulfonyl)-2,3-dihydro-1H-indene-1,3-dione], the inhibition at 1 µM amounted to 10% and the inhibition at 3 µM is 67%.

For the compound `COC(=O)[C@H]1CCCC[C@H]1C(=O)C1C(=O)c2ccc(S(=O)(=O)c3ccc4c(c3)C(=O)C(C(=O)[C@@H]3CCCC[C@@H]3C(=O)OC)C4=O)cc2C1=O` (stereo partly drawn) [Example 257, methyl (1S,2R)-2-[5-({2-[(1R,2S)-2-(methoxycarbonyl)cyclohexanecarbonyl]-1,3-dioxo-2,3-dihydro-1H-inden-5-yl}sulfonyl)-1,3-dioxo-2,3-dihydro-1H-indene-2-carbonyl]cyclohexane-1-carboxylate], the inhibition at 1 µM worked out at 7% and the inhibition at 3 µM turned out to be 37%.

With `O=C(O)CC(=O)C1C(=O)c2ccc(S(=O)(=O)c3ccc4c(c3)C(=O)C(C(=O)CC(=O)O)C4=O)cc2C1=O` (stereo not shown) [Example 404, 3-(5-{[2-(2-carboxyacetyl)-1,3-dioxo-2,3-dihydro-1H-inden-5-yl]sulfonyl}-1,3-dioxo-2,3-dihydro-1H-inden-2-yl)-3-oxopropanoic acid], the inhibition at 1 µM amounted to 24% and the inhibition at 3 µM was 28%.

Consider `CO[C@@H](C(=O)C1C(=O)c2ccc(C(=O)c3ccc4c(c3)C(=O)C(C(=O)[C@H](OC)c3ccccc3)C4=O)cc2C1=O)c1ccccc1` (stereo partly drawn) [Example 119, 2-[(2R)-2-methoxy-2-phenylacetyl]-5-{2-[(2R)-2-methoxy-2-phenylacetyl]-1,3-dioxo-2,3-dihydro-1H-indene-5-carbonyl}-2,3-dihydro-1H-indene-1,3-dione], for which the inhibition at 5 µM came to 83%, the inhibition at 10 µM turned out to be 90% and the IC50 came out at 4 µM.

On to `O=C(Cn1cnnn1)C1C(=O)c2ccc(S(=O)(=O)c3ccc4c(c3)C(=O)C(C(=O)Cn3cnnn3)C4=O)cc2C1=O` (stereo not shown) [Example 169, 5-({1,3-dioxo-2-[2-(1H-1,2,3,4-tetrazol-1-yl)acetyl]-2,3-dihydro-1H-inden-5-yl}sulfonyl)-2-[2-(1H-1,2,3,4-tetrazol-1-yl)acetyl]-2,3-dihydro-1H-indene-1,3-dione], for which the inhibition at 5 µM came to 70%, the inhibition at 10 µM was found to be 86% and the IC50 was 3 µM.

For the compound `C[C@H](NC(=O)C1C(=O)c2ccc(Oc3ccc4c(c3)C(=O)C(C(=O)N[C@@H](C)C(=O)O)C4=O)cc2C1=O)C(=O)O` (stereo partly drawn) [Example 313, (2S)-2-({5-[(2-{[(1S)-1-carboxyethyl]carbamoyl}-1,3-dioxo-2,3-dihydro-1H-inden-5-yl)oxy]-1,3-dioxo-2,3-dihydro-1H-inden-2-yl}formamido) propanoic acid], the inhibition at 1 µM came out at 31% and the inhibition at 3 µM is 67%.

As for `O=C(c1ccc2c(c1)C(=O)C(C(=O)Cc1ccncc1)C2=O)c1ccc2c(c1)C(=O)C(C(=O)Cc1ccncc1)C2=O` (stereo not shown) [Example 239, 5-{1,3-dioxo-2-[2-(pyridin-4-yl)acetyl]-2,3-dihydro-1H-indene-5-carbonyl}-2-[2-(pyridin-4-yl)acetyl]-2,3-dihydro-1H-indene-1,3-dione], the inhibition at 3 µM was determined as 100%.

In the case of `CC(C)[C@@H](N)C(=O)C1C(=O)c2ccc(Oc3ccc4c(c3)C(=O)C(C(=O)[C@H](N)C(C)C)C4=O)cc2C1=O` (stereo partly drawn) [Example 351, 2-[(2R)-2-amino-3-methylbutanoyl]-5-({2-[(2R)-2-amino-3-methylbutanoyl]-1,3-dioxo-2,3-dihydro-1H-inden-5-yl}oxy)-2,3-dihydro-1H-indene-1,3-dione], the inhibition at 1 µM came to 12% and the inhibition at 3 µM came out at 21%.

Turning to `CC(C)(C)OC(=O)N1CSC[C@H]1C(=O)C1C(=O)c2ccc(C(=O)c3ccc4c(c3)C(=O)C(C(=O)[C@@H]3CSCN3C(=O)OC(C)(C)C)C4=O)cc2C1=O` (stereo partly drawn) [Example 129, tert-butyl (4R)-4-(5-{2-[(4R)-3-[(tert-butoxy)carbonyl]-1,3-thiazolidine-4-carbonyl]-1,3-dioxo-2,3-dihydro-1H-indene-5-carbonyl}-1,3-dioxo-2,3-dihydro-1H-indene-2-carbonyl)-1,3-thiazolidine-3-carboxylate], the IC50 is about 2 µM.

Consider `CSCC(=O)C1C(=O)c2ccc(Oc3ccc4c(c3)C(=O)C(C(=O)CSC)C4=O)cc2C1=O` (stereo not shown) [Example 280, 2-[2-(methylsulfanyl)acetyl]-5-({2-[2-(methylsulfanyl)acetyl]-1,3-dioxo-2,3-dihydro-1H-inden-5-yl}oxy)-2,3-dihydro-1H-indene-1,3-dione], for which the inhibition at 1 µM is 23%, the inhibition at 3 µM is 43% and the IC50 is 3 µM.

Take `CC(=O)OC[C@H]1O[C@@H](OC(C)=O)[C@H](NC(=O)C2C(=O)c3ccc(S(=O)(=O)c4ccc5c(c4)C(=O)C(C(=O)N[C@H]4[C@H](OC(C)=O)O[C@H](COC(C)=O)[C@@H](OC(C)=O)[C@@H]4OC(C)=O)C5=O)cc3C2=O)[C@@H](OC(C)=O)[C@@H]1OC(C)=O` (stereo partly drawn) [Example 400, [(2R,3S,4R,5R,6S)-3,4,6-tris(acetyloxy)-5-{5-[(1,3-dioxo-2-{[(2S,3R,4R,5S,6R)-2,4,5-tris(acetyloxy)-6-[(acetyloxy)methyl]oxan-3-yl]carbamoyl}-2,3-dihydro-1H-inden-5-yl)sulfonyl]-1,3-dioxo-2,3-dihydro-1H-indene-2-amido}oxan-2-yl]methyl acetate]: the inhibition at 1 µM stood at 17% and the inhibition at 3 µM was determined as 21%.

Take `COCCOCCOCCNC(=O)C1C(=O)c2ccc(Oc3ccc4c(c3)C(=O)C(C(=O)NCCOCCOCCOC)C4=O)cc2C1=O` (stereo not shown) [Example 384, N-{2-[2-(2-methoxyethoxy)ethoxy]ethyl}-5-{[2-({2-[2-(2-methoxyethoxy)ethoxy]ethyl}carbamoyl)-1,3-dioxo-2,3-dihydro-1H-inden-5-yl]oxy}-1,3-dioxo-2,3-dihydro-1H-indene-2-carboxamide]: the inhibition at 1 µM worked out at 4% and the inhibition at 3 µM was 9%.

`O=C(c1ccc2c(c1)C(=O)C(C(=O)[C@@H]1CCNC1)C2=O)c1ccc2c(c1)C(=O)C(C(=O)[C@H]1CCCN1)C2=O` (stereo partly drawn) [Example 349, 5-{1,3-dioxo-2-[(3R)-pyrrolidine-3-carbonyl]-2,3-dihydro-1H-indene-5-carbonyl}-2-[(2R)-pyrrolidine-2-carbonyl]-2,3-dihydro-1H-indene-1,3-dione]: the inhibition at 1 µM worked out at 2% and the inhibition at 3 µM was determined as 27%.

For `CC[C@H](NC(=O)OCc1ccccc1)C(=O)C1C(=O)c2ccc(S(=O)(=O)c3ccc4c(c3)C(=O)C(C(=O)[C@H](CC)NC(=O)OCc3ccccc3)C4=O)cc2C1=O` (stereo partly shown) [Example 166], the inhibition at 5 µM was found to be 59%, the inhibition at 10 µM stood at 84% and the IC50 was 3.4 µM.

With `CC(C)(C)OC(=O)NCCC(=O)C1C(=O)c2ccc(Oc3ccc4c(c3)C(=O)C(C(=O)CCNC(=O)OC(C)(C)C)C4=O)cc2C1=O` (stereo not shown) [Example 267, tert-butyl N-[3-(5-{[2-(3-{[(tert-butoxy)carbonyl]amino}propanoyl)-1,3-dioxo-2,3-dihydro-1H-inden-5-yl]oxy}-1,3-dioxo-2,3-dihydro-1H-inden-2-yl)-3-oxopropyl]carbamate], the inhibition at 10 µM came out at 100%.

Turning to `CC(C)(C)OC(=O)N1CCCC[C@@H]1C(=O)C1C(=O)c2ccc(C(=O)c3ccc4c(c3)C(=O)C(C(=O)[C@H]3CCCCN3C(=O)OC(C)(C)C)C4=O)cc2C1=O` (stereo partly drawn) [Example 275, tert-butyl (2R)-2-(5-{2-[(2R)-1-[(tert-butoxy)carbonyl]piperidine-2-carbonyl]-1,3-dioxo-2,3-dihydro-1H-indene-5-carbonyl}-1,3-dioxo-2,3-dihydro-1H-indene-2-carbonyl)piperidine-1-carboxylate], the inhibition at 1 µM was 5%, the inhibition at 3 µM came to 31% and the IC50 turned out to be 3 µM.

With `O=C(c1ccc2c(c1)C(=O)C(C(=O)Nc1cc(Cl)nc(Cl)c1)C2=O)c1ccc2c(c1)C(=O)C(C(=O)Nc1cc(Cl)nc(Cl)c1)C2=O` (stereo not shown) [Example 17, 5,5′-carbonylbis(1,3-dioxo-indan-2-carboxylic acid (2,6-dichloro-pyridin-4-yl)-amide)], the IC50 came out at 1.08 µM.

`COC(=O)C(C)(C)CC(=O)C1C(=O)c2ccc(C(=O)c3ccc4c(c3)C(=O)C(C(=O)CC(C)(C)C(=O)OC)C4=O)cc2C1=O` (stereo not shown) [Example 219]: the inhibition at 5 µM came to 68%, the inhibition at 10 µM is 91% and the IC50 was determined as 5 µM.
